# ChEMBL document CHEMBL3817834, “Scaffold morphing leading to evolution of 2,4-diaminoquinolines and aminopyrazolopyrimidines as inhibitors of the ATP synthesis pathway” (Medchemcomm, 2016)
# Calls of active or inactive are those of the source. No cut-off for these calls is given here.
# Legend:
# [1] = Inhibition of ATP synthase in Mycobacterium smegmatis inverted membrane vesicles assessed as reduction in oxidative phosphorylation of ADP incubated for 60 mins in presence of NADH by luciferin/luciferase coupled […] assay; set-up: species or system Mycolicibacterium smegmatis
# [2] = Inhibition of bovine heart mitochondrial ATP synthase assessed as reduction in oxidative phosphorylation of ADP in presence of NADH by ATP bioluminescence assay; set-up: species or system Bos taurus
# [3] = system: Mycobacterium tuberculosis; assay: Antimycobacterial activity against Mycobacterium tuberculosis under aerobic condition after 7 days by microdilution method; format: functional; conditions: 168 h
# [4] = Selectivity index, ratio of IC50 for bovine heart mitochondrial ATP synthase to IC50 for ATP synthase in Mycobacterium smegmatis inverted membrane vesicles
# [5] = system: Mycobacterium tuberculosis; assay: Bactericidal activity against Mycobacterium tuberculosis under hypoxic condition after 7 days by microdilution method; format: functional; conditions: 168 h
# [6] = system: Mycobacterium tuberculosis; assay: Ratio of MBC for Mycobacterium tuberculosis under hypoxic condition to MIC for Mycobacterium tuberculosis under aerobic condition; format: functional
# [7] = system: Mycobacterium tuberculosis; assay: Bactericidal activity against Mycobacterium tuberculosis under aerobic condition after 7 days by microdilution method; format: functional; conditions: 168 h
# [8] = Ratio of IC50 for ATP synthase in Mycobacterium smegmatis inverted membrane vesicles to IC50 for Mycobacterium bovis BCG
# [9] = system: Mycobacterium tuberculosis; assay: Antimycobacterial activity against drug sensitive Mycobacterium tuberculosis ATCC 27294 by turbidometric method; format: functional
# [10] = system: Mycobacterium tuberculosis; assay: Antimycobacterial activity against drug sensitive Mycobacterium tuberculosis isolate 25618 by turbidometric method; format: functional
# [11] = system: Mycobacterium tuberculosis; assay: Antimycobacterial activity against drug sensitive Mycobacterium tuberculosis Erdman by turbidometric method; format: functional; conditions: Erdman = ATCC 35801
# [12] = system: Mycobacterium tuberculosis; assay: Antimycobacterial activity against drug sensitive Mycobacterium tuberculosis Beijing (E-47/94) by turbidometric method; format: functional
# [13] = system: Mycobacterium tuberculosis; assay: Antimycobacterial activity against drug sensitive Mycobacterium tuberculosis Harlingen by turbidometric method; format: functional
# [14] = system: Mycobacterium tuberculosis; assay: Antimycobacterial activity against Mycobacterium tuberculosis H37Rv infected in Balb/c mouse assessed as reduction in CFU in lungs at 100 to 200 mg/kg, po qd dosed 6 days per week for 2 weeks; format: functional, organism-based
# [15] = system: Mycobacterium tuberculosis; assay: Bactericidal activity against Mycobacterium tuberculosis under replicating condition assessed as reduction in colony forming units at 3.125 to 200 uM by time kill kinetic study; format: functional, organism-based; conditions: TDE = time-dependent effect
# Mus musculus = assay: T>MIC in Mycobacterium tuberculosis H37Rv infected Balb/c mouse at 100 to 200 mg/kg, po qd dosed 6 days per week for 2 weeks by LC-MS analysis
# [16] = system: Mycobacterium tuberculosis; assay: Antimycobacterial activity against Mycobacterium tuberculosis H37Rv infected in Balb/c mouse assessed as log reduction in CFU in lungs at 10 mg/kg, po qd dosed 6 days per week for 2 weeks; format: functional
Structure (SMILES),IC50 [1] [nM],MIC [3] [µM],Ratio IC50 [4],MBC [5] [µM],MBC [7] [µM],MIC80 [9] [µM],MIC80 [10] [µM],MIC80 [11] [µM],MIC80 [12] [µM],MIC80 [13] [µM],other results
COc1cc2nc(NCCC3CCOCC3)nc(Nc3cnc(OCCN(C)C)c(F)c3)c2cc1OC,900,25,> 28,,,,,,,,IC50 [2]: > 25000 nM
COc1cc2nc(N3CCC(c4ccccc4Cl)C3)cc(Nc3cnc(OCC4CCCN4C)c(F)c3)c2cc1OC (stereo not given),60,6.2,44,50,50,,,,,,Ratio [6]: 15
CCOc1ncc(Nc2nc(NCCC3CCOCC3)nc3cc(OC)c(OC)cc23)cc1F,600,1.9,2.3,3,19,,,,,,Ratio [6]: 15
CCOc1ncc(Nc2cc(NCCC3CCOCC3)nc3ccnn23)cc1F,21000,> 50,> 1.2,,,,,,,,
COc1cc2nc(NCCC3CCOCC3)nc(Nc3ncc(C(C)C)s3)c2cc1OC,100,6.2,,50,25,,,,,,Ratio [6]: 15
CN(C)CCOc1ncc(Nc2cc(N3CCC(c4ccccc4Cl)C3)nc3cc(F)c(F)cc23)cc1F (stereo not given),100,3.1,19,50,38,3.1,3.1,3.1,3.1,3.1,Ratio IC50 [8]: 100; Ratio [6]: 15; Activity [14]: Active
COc1cc2nc(NCCC3CCOCC3)nc(Nc3cnc(OC)c(C)c3)c2cc1OC,400,3.1,10,13,25,,,,,,Ratio [6]: 15
COc1cc2nc(N3CCC(c4ccccc4Cl)C3)cc(Nc3cnc(NCCN(C)C)c(F)c3)c2cc1OC (stereo not given),100,1.6,51,,,,,,,,
CC[C@@H](CO)NCCN[C@@H](CC)CO [ETHAMBUTOL],,,,,,9.8,9.8,9.8,9.8,9.8,
N#CC(C#N)=NNc1cccc(Cl)c1 [CARBONYL CYANIDE M-CHLOROPHENYLHYDRAZONE],4800,,,,,,,,,,
CCOc1ncc(Nc2cc(NCCC3CCOCC3)nc3cc(OC)c(OC)cc23)cc1F,800,6.2,3.2,,,,,,,,Ratio IC50 [8]: 100
CN[C@@H]1[C@H](O[C@H]2[C@H](O[C@H]3[C@H](O)[C@@H](O)[C@H](N=C(N)N)[C@@H](O)[C@@H]3N=C(N)N)O[C@@H](C)[C@]2(O)C=O)O[C@@H](CO)[C@H](O)[C@H]1O [STREPTOMYCIN],,,,,,0.3,0.3,0.3,0.3,0.3,
COc1cc2nc(NCCC3CCOCC3)nc(Nc3cc(C(C)(C)C)n(C)n3)c2cc1OC,100,6.2,52,50,25,,,,,,Ratio IC50 [8]: 100; Ratio [6]: 15
CN(C)CCOc1ncc(Nc2cc(C(F)(F)F)nc3cc(-c4ccc(F)cc4)nn23)cc1F,500,12.5,19,,,,,,,,Ratio IC50 [8]: 100
COc1cc2nc(NCCc3ccccc3Cl)cc(Nc3cnc(OCCN(C)C)c(F)c3)c2cc1OC,60,3.1,79,,,,,,,,
CN(C)CCOc1ncc(Nc2cc(-c3ccccc3)nc3cc(-c4ccc(F)cc4)nn23)cc1F,450,6.2,20,100,28,6.3,6.3,6.3,6.3,6.3,Ratio IC50 [8]: 100; Activity [15]: tde; Ratio [6]: 15; Activity [14]: Active; T>MIC (Mus musculus): 24 h
CO[C@H]1/C=C/O[C@@]2(C)Oc3c(C)c(O)c4c(O)c(c(/C=N/N5CCN(C)CC5)c(O)c4c3C2=O)NC(=O)/C(C)=C\C=C\[C@H](C)[C@H](O)[C@@H](C)[C@@H](O)[C@@H](C)[C@H](OC(C)=O)[C@@H]1C [RIFAMPIN],,,,,,0.04,0.04,0.04,0.04,0.04,
COc1cc2nc(NCCc3cccnc3)nc(Nc3cnc(OC)c(C)c3)c2cc1OC,100,> 200,96,,,,,,,,
CC(Nc1nc(N2CCCCC2)nc2ccccc12)c1ccccc1 (stereo not given),2100,25,2.6,,,,,,,,IC50 [2]: 2600 nM
NNC(=O)c1ccncc1 [ISONIAZID],,,,,,0.2,0.2,0.2,0.2,0.2,Activity [16]: >2 deltalog10CFU
CC1COc2c(N3CCN(C)CC3)c(F)cc3c(=O)c(C(=O)O)cn1c23 (stereo not given) [OFLOXACIN],,,,,,0.7,0.7,0.7,0.7,0.7,
CC(Nc1nc(N2CCCC2)nc2ccccc12)c1ccccc1 (stereo not given),2500,50,< 0.04,,,,,,,,
Cn1nc(Nc2nc(NCCC3CCOCC3)nc3ccccc23)cc1C(C)(C)C,1700,6.2,4.5,,,,,,,,
CCOc1ncc(Nc2nc(OCCC3CCOCC3)nc3cc(OC)c(OC)cc23)cc1F,25000,> 200,,,,,,,,,
COc1nc2ccc(Br)cc2cc1[C@@H](c1ccccc1)[C@@](O)(CCN(C)C)c1cccc2ccccc12 [BEDAQUILINE],5,0.2,,4,1.6,0.2,< 2,< 2,< 2,< 2,Ratio IC50 [8]: 100; Ratio [6]: 15
COc1cc2nc(N3CCC(c4ccccc4Cl)C3)cc(Nc3cnc(OCCN(C)C)c(F)c3)c2cc1OC (stereo not given),40,1.6,128,200,54,6.3,3.1,3.1,3.1,3.1,Ratio IC50 [8]: 100
CN(C)CCOc1ncc(Nc2cc(-c3ccccc3)nc3cc(-c4ccc(F)cc4)[nH]c23)cc1F,100,0.8,13,,,3.1,3.1,3.1,3.1,3.1,Ratio IC50 [8]: 100
COc1cc2nc(NCCC3CCOCC3)cc(Nc3cnc(OCCN(C)C)c(F)c3)c2cc1OC,3700,200,1,,,,,,,,
